Measurements reported in ChEMBL document CHEMBL1141877 (J Med Chem, 2005).

Tests used:
[1] = target: Butyrylcholinesterase (Rattus norvegicus, UniProt Q9JKC1); assay: Inhibitory concentration against butyrylcholinesterase of rat serum
[2] = target: T1, Acetylcholinesterase (Rattus norvegicus, UniProt P37136); assay: Inhibitory concentration against acetylcholinesterase of rat cortex homogenate
T1 sequence (P37136 whole entry): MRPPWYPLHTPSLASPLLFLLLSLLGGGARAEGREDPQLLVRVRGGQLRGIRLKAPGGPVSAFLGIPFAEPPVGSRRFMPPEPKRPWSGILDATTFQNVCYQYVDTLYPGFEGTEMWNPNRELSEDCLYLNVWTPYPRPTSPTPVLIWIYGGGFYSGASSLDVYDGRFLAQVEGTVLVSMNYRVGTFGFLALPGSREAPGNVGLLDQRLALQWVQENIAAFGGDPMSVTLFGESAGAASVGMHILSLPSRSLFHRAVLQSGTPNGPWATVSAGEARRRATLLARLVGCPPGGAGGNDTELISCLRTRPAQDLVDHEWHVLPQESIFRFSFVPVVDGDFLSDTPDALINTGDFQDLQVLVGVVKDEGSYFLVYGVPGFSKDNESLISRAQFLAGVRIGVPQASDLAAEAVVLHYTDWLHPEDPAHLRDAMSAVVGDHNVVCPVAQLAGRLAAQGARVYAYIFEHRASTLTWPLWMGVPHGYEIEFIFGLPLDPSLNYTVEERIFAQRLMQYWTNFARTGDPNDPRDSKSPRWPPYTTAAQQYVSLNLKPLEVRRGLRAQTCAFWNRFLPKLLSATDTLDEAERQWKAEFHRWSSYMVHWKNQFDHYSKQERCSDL

Butyrylcholinesterase, sequence (Q9JKC1 whole entry): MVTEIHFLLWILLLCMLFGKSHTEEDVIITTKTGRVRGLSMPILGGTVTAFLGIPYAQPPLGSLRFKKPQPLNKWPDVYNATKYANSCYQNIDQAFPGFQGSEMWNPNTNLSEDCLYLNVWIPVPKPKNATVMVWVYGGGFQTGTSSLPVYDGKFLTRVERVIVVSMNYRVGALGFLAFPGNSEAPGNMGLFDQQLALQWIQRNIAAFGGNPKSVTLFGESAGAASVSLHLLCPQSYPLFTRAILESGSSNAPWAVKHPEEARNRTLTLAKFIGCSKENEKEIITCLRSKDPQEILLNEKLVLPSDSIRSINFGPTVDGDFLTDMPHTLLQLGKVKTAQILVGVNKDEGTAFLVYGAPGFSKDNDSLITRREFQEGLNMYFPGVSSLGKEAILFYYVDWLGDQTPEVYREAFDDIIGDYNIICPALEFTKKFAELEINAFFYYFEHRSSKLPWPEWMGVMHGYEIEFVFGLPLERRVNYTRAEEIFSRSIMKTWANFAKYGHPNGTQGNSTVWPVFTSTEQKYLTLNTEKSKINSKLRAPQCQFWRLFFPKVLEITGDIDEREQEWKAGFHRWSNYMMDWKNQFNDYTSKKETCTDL

| SMILES | IC50 [1] [µM] | IC50 [2] [µM] |
| --- | --- | --- |
| CC1=C[C@H]2Cc3[nH]c(=O)ccc3[C@]3(C1)NCCC[C@H]23 [HUPERZINE B] | 227 | 19.3 |
| CC1=CC2Cc3[nH]c(=O)ccc3[C@@]3(C1)[C@@H]2CCCN3C(=O)CCN(C)CCCCCCCCN(C)CCC(=O)N1CCC[C@@H]2C3C=C(C)C[C@]21c1ccc(=O)[nH]c1C3 [BIS(16)-HUPERZINE B] | 63 | 0.0185 |
| CC1=CC2Cc3[nH]c(=O)ccc3[C@@]3(C1)[C@@H]2CCCN3C(=O)CN(C)CCN(C)CC(=O)N1CCC[C@@H]2C3C=C(C)C[C@]21c1ccc(=O)[nH]c1C3 [BIS(8)-HUPERZINE B] | – | 1.02 |
| CC1=CC2Cc3[nH]c(=O)ccc3[C@@]3(C1)[C@@H]2CCCN3C(=O)CCN(C)CCCCCCN(C)CCC(=O)N1CCC[C@@H]2C3C=C(C)C[C@]21c1ccc(=O)[nH]c1C3 | 67.9 | 0.0359 |
| CC1=CC2Cc3[nH]c(=O)ccc3[C@@]3(C1)[C@@H]2CCCN3C(=O)CCN(C)CCCCCCCCCCN(C)CCC(=O)N1CCC[C@@H]2C3C=C(C)C[C@]21c1ccc(=O)[nH]c1C3 [BIS(18)-HUPERZINE B] | 54.3 | 0.00493 |
| CC1=CC2Cc3[nH]c(=O)ccc3[C@@]3(C1)[C@@H]2CCCN3C(=O)CN(C)CCCN(C)CC(=O)N1CCC[C@@H]2C3C=C(C)C[C@]21c1ccc(=O)[nH]c1C3 [BIS(9)-HUPERZINE B] | 60 | 0.471 |
| CC1=CC2Cc3[nH]c(=O)ccc3[C@@]3(C1)[C@@H]2CCCN3C(=O)CCN(C)CCCCCCCCCCCCN(C)CCC(=O)N1CCC[C@@H]2C3C=C(C)C[C@]21c1ccc(=O)[nH]c1C3 [BIS(20)-HUPERZINE B] | 88.4 | 0.0252 |
| CC1=CC2Cc3[nH]c(=O)ccc3[C@@]3(C1)[C@@H]2CCCN3C(=O)CN(C)CCCCCCN(C)CC(=O)N1CCC[C@@H]2C3C=C(C)C[C@]21c1ccc(=O)[nH]c1C3 [BIS(12)-HUPERZINE B] | 64.5 | 0.0762 |
| CC1=CC2Cc3[nH]c(=O)ccc3[C@@]3(C1)[C@@H]2CCCN3C(=O)CN(C)CCCCCCCCN(C)CC(=O)N1CCC[C@@H]2C3C=C(C)C[C@]21c1ccc(=O)[nH]c1C3 | 65.4 | 0.0508 |
